Data published in patent publication US10988459B2 (priority 2015, dated 2021).
pKi: −log10 of the molar value.

The molecules below were run against human RIP1 kinase domain (2-375) (Homo sapiens (Human), UniProt Q13546) (assay: biochemical). Conditions: Table 1; apparent Ki (Morrison tight-binding fit); 50 nM RIP1 kinase domain, 50 uM ATP, 2 hours incubation; read-out: RIP1 Ki.
Chain of human RIP1 kinase domain (2-375) (Q13546 2-375): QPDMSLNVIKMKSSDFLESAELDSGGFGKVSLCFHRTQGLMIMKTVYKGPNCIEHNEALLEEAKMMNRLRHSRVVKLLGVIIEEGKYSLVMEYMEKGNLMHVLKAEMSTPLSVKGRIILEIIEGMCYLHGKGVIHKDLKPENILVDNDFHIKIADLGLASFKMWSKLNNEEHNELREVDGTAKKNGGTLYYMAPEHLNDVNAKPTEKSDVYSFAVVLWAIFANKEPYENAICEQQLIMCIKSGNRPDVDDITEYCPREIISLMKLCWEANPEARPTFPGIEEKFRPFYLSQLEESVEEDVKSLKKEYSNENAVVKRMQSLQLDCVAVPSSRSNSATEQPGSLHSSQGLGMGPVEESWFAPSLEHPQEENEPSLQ
Type: biochemical
How it was run: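 Ki^app comes from Morrison tight-binding fits of fractional activity versus compound concentration. Activity was read as ADP production, via tracer displacement lowering fluorescence polarization (633 nm laser). Conditions: 2 h, 50 nM insect-cell-expressed enzyme, 50 uM ATP, 30 mM MgCl2, 1 mM DTT, 0.5% DMSO, pH 7.5 Hepes.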
CC1CCc2noc(C(=O)N[C@H]3COc4ccccc4NC3=O)c2C1 (stereo partly drawn) [Example 62, 5-methyl-N-((S)-4-oxo-2,3,4,5-tetrahydrobenzo[b][1,4]oxazepin-3-yl)-4,5,6,7-tetrahydrobenzo[c]isoxazole-3-carboxamide] gave a pKi of 6.60.
CN1C(=O)[C@@H](NC(=O)c2n[nH]c3ccccc23)COc2ccccc21 [Example 33, (S)—N-(5-methyl-4-oxo-2,3,4,5-tetrahydrobenzo[b][1,4]oxazepin-3-yl)-1H-indazole-3-carboxamide] gave a pKi of 5.46.

Same assay, conditions: Table 5; apparent Ki (Morrison tight-binding fit); 50 nM RIP1 kinase domain, 50 uM ATP, 2 hours incubation; read-out: Ki
In the case of CN1C(=O)C(NC(=O)c2ncn(Cc3ccccc3)n2)CCn2nc(-c3ccn(C)n3)cc21 (racemic) [Example 777, 1-benzyl-N-(4-methyl-2-(1-methyl-1H-pyrazol-3-yl)-5-oxo-5,6,7,8-tetrahydro-4H-pyrazolo[1,5-a][1,3]diazepin-6-yl)-1H-1,2,4-triazole-3-carboxamide], the pKi was 7.15.

Same assay, conditions: human RIP1 kinase domain (2-375), 50 uM ATP, 2 hours incubation, Transcreener ADP assay; read-out: RIP1 Ki
With CN1C(=O)[C@@H](NC(=O)c2n[nH]c3c2CC(C)(c2ccccc2)OC3)COc2ccccc21 (stereo partly drawn) [Example 212, 5-methyl-N—((S)-5-methyl-4-oxo-2,3,4,5-tetrahydrobenzo[b][1,4]oxazepin-3-yl)-5-phenyl-1,4,5,7-tetrahydropyrano[3,4-c]pyrazole-3-carboxamide] the pKi was 6.24.
CN1C(=O)[C@@H](NC(=O)c2nc3n(n2)C(c2ccccc2)CC3)CCn2nccc21 (stereo partly drawn) [Example 124, N—((S)-4-methyl-5-oxo-5,6,7,8-tetrahydro-4H-pyrazolo[1,5-a][1,3]diazepin-6-yl)-5-phenyl-6,7-dihydro-5H-pyrrolo[1,2-b][1,2,4]triazole-2-carboxamide] gave a pKi of 7.11.
CN1C(=O)C(NC(=O)c2nnc(Cc3ccccc3)[nH]2)CCCn2cncc21 (centres unmarked) [Example 102, 5-benzyl-N-(1-methyl-2-oxo-1,2,3,4,5,6-hexahydroimidazo[1,5-a][1,3]diazocin-3-yl)-4H-1,2,4-triazole-3-carboxamide] showed a pKi of 6.47.
With CN1C(=O)[C@@H](NC(=O)c2cn(Cc3ccc(F)c(F)c3)cn2)CCn2nccc21 [Example 146, (S)-1-(3,4-difluorobenzyl)-N-(4-methyl-5-oxo-5,6,7,8-tetrahydro-4H-pyrazolo[1,5-a][1,3]diazepin-6-yl)-1H-imidazole-4-carboxamide] the pKi was 6.52.
With CC(C)n1ncc2cnc(C(=O)N[C@H]3COc4ccccc4N(C)C3=O)cc21 [Example 213, (S)-1-isopropyl-N-(5-methyl-4-oxo-2,3,4,5-tetrahydrobenzo[b][1,4]oxazepin-3-yl)-1H-pyrazolo[4,3-c]pyridine-6-carboxamide] the pKi was 7.91.
With Cc1cc2n(n1)CC[C@H](NC(=O)c1ncn(CC3CCCCC3)n1)C(=O)N2C [Example 163, (S)-1-(cyclohexylmethyl)-N-(2,4-dimethyl-5-oxo-5,6,7,8-tetrahydro-4H-pyrazolo[1,5-a][1,3]diazepin-6-yl)-1H-1,2,4-triazole-3-carboxamide] the pKi was 7.65.
In the case of CN1C(=O)[C@@H](NC(=O)c2ncn(Cc3ccc(F)c(F)c3)n2)CCn2nc(C3CC3)cc21 [Example 223, (S)—N-(2-cyclopropyl-4-methyl-5-oxo-5,6,7,8-tetrahydro-4H-pyrazolo[1,5-a][1,3]diazepin-6-yl)-1-(3,4-difluorobenzyl)-1H-1,2,4-triazole-3-carboxamide], the pKi was 7.50.
Work on CN1C(=O)[C@@H](NC(=O)c2n[nH]c3c2CC2(CCC2)OC3)COc2ccccc21 [Example 211, (S)—N-(5-methyl-4-oxo-2,3,4,5-tetrahydrobenzo[b][1,4]oxazepin-3-yl)-4′,7′-dihydro-1′H-spiro[cyclobutane-1,5′-pyrano[3,4-c]pyrazole]-3′-carboxamide] yielded a pKi of 6.81.
Molecule CN1C(=O)[C@@H](NC(=O)c2nnn3c2C[C@@H](C(F)(F)F)CC3)COc2ccccc21 [Example 150, (S)-N-((S)-5-methyl-4-oxo-2,3,4,5-tetrahydrobenzo[b][1,4]oxazepin-3-yl)-5-(trifluoromethyl)-4,5,6,7-tetrahydro-[1,2,3]triazolo[1,5-a]pyridine-3-carboxamide] has a pKi of 6.90.
In the case of CN1C(=O)[C@@H](NC(=O)c2cn(Cc3ccc(F)c(F)c3)cn2)COc2c1cnn2C [Example 183, (S)-1-(3,4-difluorobenzyl)-N-(1,4-dimethyl-5-oxo-4,5,6,7-tetrahydro-1H-pyrazolo[3,4-b][1,4]oxazepin-6-yl)-1H-imidazole-4-carboxamide], the pKi was 5.80.

Same assay, conditions: human RIP1 kinase domain (2-375), Transcreener ADP assay, 50 uM ATP, 2 hours incubation; read-out: RIP1 Ki
CN1C(=O)C(NC(=O)c2ncn(CC3CCC(F)(F)CC3)n2)CCn2nc(C3CC3)cc21 (centres unmarked) [Example 255, N-(2-cyclopropyl-4-methyl-5-oxo-5,6,7,8-tetrahydro-4H-pyrazolo[1,5-a][1,3]diazepin-6-yl)-1-((4,4-difluorocyclohexyl)methyl)-1H-1,2,4-triazole-3-carboxamide] gave a pKi of 6.38.
CC[C@@]1(C)OCc2cnc(C(=O)NC3CCn4nc(C5CCOCC5)cc4N(C)C3=O)cc21 (stereo partly drawn) [Example 236, (1R)-1-ethyl-1-methyl-N-(4-methyl-5-oxo-2-(tetrahydro-2H-pyran-4-yl)-5,6,7,8-tetrahydro-4H-pyrazolo[1,5-a][1,3]diazepin-6-yl)-1,3-dihydrofuro[3,4-c]pyridine-6-carboxamide] gave a pKi of 5.10.
For CN1C(=O)C(NC(=O)c2ncn(Cc3ccc(F)cc3)n2)CCn2nc(C3CC3)cc21 (centres unmarked) [Example 257, N-(2-cyclopropyl-4-methyl-5-oxo-5,6,7,8-tetrahydro-4H-pyrazolo[1,5-a][1,3]diazepin-6-yl)-1-(4-fluorobenzyl)-1H-1,2,4-triazole-3-carboxamide], the pKi was 7.08.

Same assay, conditions: scale-up batches (Examples A-C); apparent Ki (Morrison tight-binding fit); 50 nM RIP1 kinase domain, 50 uM ATP; read-out: Ki
In the case of CN1C(=O)[C@@H](NC(=O)c2ncn(Cc3ccccc3)n2)CCn2nccc21 [Example B], the pKi was 7.89.

Same assay, conditions: tight-binding apparent inhibition constant; human RIP1 kinase domain (2-375) 50 nM, 50 uM ATP, 2 hours; read-out: Ki
For CN1C(=O)[C@@H](NC(=O)c2nc3cccc(-c4ccccc4)n3n2)CCn2nccc21 [Example 375, (S)—N-(4-methyl-5-oxo-5,6,7,8-tetrahydro-4H-pyrazolo[1,5-a][1,3]diazepin-6-yl)-5-phenyl-[1,2,4]triazolo[1,5-a]pyridine-2-carboxamide], the pKi was 7.55.
CN1C(=O)[C@@H](NC(=O)c2ncc3c(n2)C2(CCOC2)OC3)COc2ccccc21 (stereo partly drawn) [Example 508, N-[(3S)-5-methyl-4-oxo-2,3-dihydro-1,5-benzoxazepin-3-yl]spiro[5H-furo[3,4-d]pyrimidine-7,3′-tetrahydrofuran]-2-carboxamide] was tested, and the pKi was 7.05.
Molecule Cc1cc2n(n1)CC[C@H](NC(=O)c1ncc3c(n1)C(C)(CC(F)(F)F)OC3)C(=O)N2C (stereo partly drawn) [Example 487, 7-methyl-N-[(6S)-2,4-dimethyl-5-oxo-7,8-dihydro-6H-pyrazolo[1,5-a][1,3]diazepin-6-yl]-7-(2,2,2-trifluoroethyl)-5H-furo[3,4-d]pyrimidine-2-carboxamide] has a pKi of 6.43.
Work on CCc1cc2n(n1)CC[C@H](NC(=O)c1ncn(Cc3ccccc3F)n1)C(=O)N2C [Example 464, (S)—N-(2-ethyl-4-methyl-5-oxo-5,6,7,8-tetrahydro-4H-pyrazolo[1,5-a][1,3]diazepin-6-yl)-1-(2-fluorobenzyl)-1H-1,2,4-triazole-3-carboxamide] yielded a pKi of 7.85.
Work on CN1C(=O)[C@@H](NC(=O)c2ncn(Cc3ccccn3)n2)CCn2nccc21 [Example 650, 1-(2-pyridylmethyl)-N-(6S)-4-methyl-5-oxo-7,8-dihydro-6H-pyrazolo[1,5-a][1,3]diazepin-6-yl-1,2,4-triazole-3-carboxamide] yielded a pKi of 6.72.
Molecule CN1C(=O)[C@@H](NC(=O)c2ncn(Cc3ccc(F)cc3F)n2)CCn2nc(C(F)(F)F)cc21 [Example 529] has a pKi of 7.55.
CN1C(=O)[C@@H](NC(=O)c2nc3n(n2)[C@H](C(F)(F)F)CC3)CCn2nccc21 [Example 344, (5S)—N-[(6S)-4-methyl-5-oxo-7,8-dihydro-6H-pyrazolo[1,5-a][1,3]diazepin-6-yl]-5-(trifluoromethyl)-6,7-dihydro-5H-pyrrolo[1,2-b][1,2,4]triazole-2-carboxamide] gave a pKi of 6.65.
CN1C(=O)[C@@H](NC(=O)c2nc3n(n2)CCCC3c2ccccc2)COc2ccccc21 (stereo partly drawn) [Example 553, 8-phenyl-N-[(3S)-5-methyl-4-oxo-2,3-dihydro-1,5-benzoxazepin-3-yl]-5,6,7,8-tetrahydro-[1,2,4]triazolo[1,5-a]pyridine-2-carboxamide] gave a pKi of 8.06.
CN1C(=O)[C@@H](NC(=O)c2nc3n(n2)[C@H](c2cnn(C)c2)CCC3)COc2ccccc21 (racemic) [Example 411, (S)-5-(1-methyl-1H-pyrazol-4-yl)-N—((S)-5-methyl-4-oxo-2,3,4,5-tetrahydrobenzo[b][1,4]oxazepin-3-yl)-5,6,7,8-tetrahydro-[1,2,4]triazolo[1,5-a]pyridine-2-carboxamide] was tested, and the pKi was 5.19.
Work on Cc1cc2n(n1)CC[C@H](NC(=O)c1ncn(CC3CC(C)(C)C3)n1)C(=O)N2C [Example 555, 1-[(3,3-dimethylcyclobutyl)methyl]-N-(6S)-2,4-dimethyl-5-oxo-7,8-dihydro-6H-pyrazolo[1,5-a][1,3]diazepin-6-yl-1,2,4-triazole-3-carboxamide] yielded a pKi of 7.37.
Molecule Cc1nn2c(c1C)N(C)C(=O)[C@@H](NC(=O)c1nnc(Cc3cccc(F)c3F)[nH]1)CC2 [Example 490, 5-[(2,3-difluorophenyl)methyl]-N-(6S)-2,3,4-trimethyl-5-oxo-7,8-dihydro-6H-pyrazolo[1,5-a][1,3]diazepin-6-yl-4H-1,2,4-triazole-3-carboxamide] has a pKi of 7.40.
With CCC1CCc2nc(C(=O)N[C@H]3COc4ccccc4N(C)C3=O)nn21 (stereo partly drawn) [Example 355, 5-ethyl-N-[(3S)-5-methyl-4-oxo-2,3-dihydro-1,5-benzoxazepin-3-yl]-6,7-dihydro-5H-pyrrolo[1,2-b][1,2,4]triazole-2-carboxamide] the pKi was 7.28.
